Values after ≈ are worked out from the molar mass of the structure shown.
Conditions: buffer; pH 7.4; 200.0 µM

Row | SMILES | solubility kinetic
1 | CSc1ccccc1C(=O)NCCSc1ccc(C)cc1 | 17.2 µg/mL (≈ 54.2 µM)
2 | O=C(O)CCn1c(O)c(C=C2N=c3ccccc3=N2)sc1=S | > 50 µg/mL
3 | Cc1ccccc1NC(=O)C1CC(=O)OC12CCOC(C)(C)C2 (stereo not given) | > 47.6 µg/mL
4 | COc1ccc(N2CCN(c3cc(C)c4cccc(C)c4n3)CC2)cc1 | < 0.2 µg/mL
5 | CSc1ncc(C(=O)Nc2ccccc2F)c(-c2ccccc2)n1 | 1.3 µg/mL (≈ 3.83 µM)
6 | NC(=O)CCn1cnc2ccccc21 | 25.5 µg/mL (≈ 135 µM)
7 | COc1cc(Cl)c(C)cc1Nc1ncccn1 | 22.4 µg/mL (≈ 89.7 µM)
8 | Cc1nc2ccccc2c2oc(C(=O)N3CC(C)CC(C)C3)cc12 (stereo not given) | 35.5 µg/mL (≈ 110 µM)
9 | OCc1c[nH]c(=S)n1CCOc1cccc(C(F)(F)F)c1 | 5.5 µg/mL (≈ 17.3 µM)
10 | COc1ccc(-c2nnc(SCC(=O)N(C)C3CCS(=O)(=O)C3)n2C(C)C)cc1 (stereo not given) | > 65.8 µg/mL
11 | CC1(C)Cc2c(sc(NC(=O)/C=C/C(=O)O)c2C#N)CO1 | 41.4 µg/mL (≈ 135 µM)
12 | Cc1cc(S(=O)(=O)NCc2ccco2)c(C)cc1Cl | > 45 µg/mL
13 | OCc1nc2ccccc2n1Cc1c(F)cccc1Cl | 14.4 µg/mL (≈ 49.5 µM)
14 | Cc1ccc(Oc2ncccc2NC(=O)CCCC(=O)O)c2c1CCC2 | > 53.2 µg/mL
15 | Cc1cccc(C(=O)OCC(=O)NC23CC4CC(CC(C4)C2)C3)c1O | 8.9 µg/mL (≈ 25.9 µM)
16 | Cc1nnc(NC(=O)C(C)Sc2nnc(-c3ccco3)n2C)s1 (stereo not given) | > 52.6 µg/mL
17 | CNCc1c(OCc2ccc(F)cc2)ccc2ccccc12.Cl | > 49.8 µg/mL
18 | O=S(=O)(NC1CCSc2ccccc21)c1ccc(Cl)nc1 (stereo not given) | 11.6 µg/mL (≈ 34 µM)
19 | CC(C)c1nc2cc(C(=O)NC(C)c3cnn(C)c3)ccc2o1 (stereo not given) | > 46.9 µg/mL
20 | Cc1ccc(NC(=S)N2CCCCC2)cc1C | 30.5 µg/mL (≈ 123 µM)
21 | C=CC(=O)NC(NC(=O)C=C)c1ccccc1F | > 37.2 µg/mL
22 | Cc1nc2ccc([N+](=O)[O-])cc2c(=O)n1Cc1cccc(F)c1 | 9.1 µg/mL (≈ 29 µM)
23 | O=C(NCc1ccccc1)c1ccc(NC(=O)c2ccco2)cc1 | 2 µg/mL (≈ 6.24 µM)
24 | COc1ccccc1-n1c(SCC(=O)NCc2ccc3c(c2)OCO3)nc2cc([N+](=O)[O-])ccc21 | 3.1 µg/mL (≈ 6.29 µM)

Row | SMILES | solubility kinetic
25 | Cc1cc(C)cc(NC(=O)C[n+]2ccccc2)c1.[Cl-] | > 41.5 µg/mL
26 | Cc1ccc(NC(=S)N2CCC(NC(=O)c3ccc(C)cc3)CC2)cc1 | 2.2 µg/mL (≈ 5.99 µM)
27 | COc1ccc2c(c1)CCCC21NC(=O)N(CC(=O)NCc2cccs2)C1=O (stereo not given) | > 59.9 µg/mL
28 | OC1(C#CCCN2CCCCC2)c2ccccc2-c2ccccc21 | > 47.6 µg/mL
29 | COc1ccc(-c2csc3nc(-c4ccccc4F)oc(=O)c23)cc1 | < 0.8 µg/mL
30 | CCN(C(=O)Cc1c(C(=O)O)n(CC)c2ccccc12)c1ccccc1C | 42.7 µg/mL (≈ 117 µM)
31 | O=C(NCc1ccccc1)NC12CC3CC(CC(C3)C1)C2 | 2.6 µg/mL (≈ 9.14 µM)
32 | O=C(COC(=O)CCSc1ccccc1)Nc1ccccc1 | 41.6 µg/mL (≈ 132 µM)
33 | Cc1cccc(OCC(=O)Nc2ccc(NC(=O)c3ccco3)cc2)c1 | 0.6 µg/mL (≈ 1.71 µM)
34 | Cc1oc(-c2cc(F)cc(F)c2)nc1CN1CCSCC1 | 26.3 µg/mL (≈ 84.7 µM)
35 | CC(=O)Cn1ncc(N2CCOCC2)c(Cl)c1=O | > 40.8 µg/mL
36 | C=CCn1c(SCC(=O)Nc2sc3c(c2C#N)CCC(C)C3)nc2cc(C(=O)O)ccc2c1=O (stereo not given) | 15 µg/mL (≈ 30.3 µM)
37 | CC(=O)Nc1ccc(S(=O)(=O)NCC(=O)OCC(=O)N2CC(C)OC(C)C2)cc1 (stereo not given) | > 64.1 µg/mL
38 | COc1cc(C(=O)OCc2cc(=O)n3ccsc3n2)ccc1OC(C)C | 5.3 µg/mL (≈ 14.2 µM)
39 | CCN(CC)S(=O)(=O)c1nnc(NC(=O)c2ccco2)s1 | > 49.6 µg/mL
40 | NC(=O)c1cnn(-c2ccc3ccccc3c2)c1N | > 37.8 µg/mL
41 | CC(C)Oc1ccc(C(=O)CCN2CCOCC2)cc1 | 32.8 µg/mL (≈ 118 µM)
42 | Cc1ccc(NC(=S)Nc2cccc3ccccc23)cc1 | 1.5 µg/mL (≈ 5.13 µM)
43 | COc1ccc(OC)c(C2=NOC(C(=O)Nc3cc(C)on3)C2)c1 (stereo not given) | 44.1 µg/mL (≈ 133 µM)
44 | O=C(NCCCO)c1cc2ccccc2[nH]1 | > 32.7 µg/mL
45 | N#CC(C#N)=Cc1c[nH]c(=O)c(C#N)c1Nc1ccccc1 | > 43.1 µg/mL
46 | CC(C)(Oc1ccc(Cl)cc1)C(=O)N1CCN(C(=O)c2ccco2)CC1 | > 56.5 µg/mL
47 | O=C(NCCc1nnc2ccccn12)c1cccs1 | > 40.8 µg/mL
48 | CNC(=O)C(=O)Nc1cc2c3c(c1)C(C)C(=O)N3CCC2 (stereo not given) | > 43.1 µg/mL

Row | SMILES | solubility kinetic
49 | Cc1cccnc1NC(=O)CNC(=O)c1cccs1 | > 41.3 µg/mL
50 | COc1ccc(C(=O)NCC2CCCO2)cc1OC (stereo not given) | 35.7 µg/mL (≈ 135 µM)
51 | CCOC(=O)CC(=O)COc1nc2cc3c(nc2o1)CCCC3 | > 47.7 µg/mL
52 | CSc1ccc(CN2CCN(CC=C(C)C)C(CCO)C2)cc1 (stereo not given) | > 50.2 µg/mL
53 | O=C(COC(=O)COc1ccc(Cl)cc1)NCCCc1ccccc1 | 26.1 µg/mL (≈ 72.1 µM)
54 | O=C(NC1CCCC1)c1cc(-c2cccc(Cl)c2)on1 | 1.5 µg/mL (≈ 5.16 µM)
55 | CSc1ccccc1NC(=O)CCn1c(=O)oc2ccccc21 | > 49.3 µg/mL
56 | Nc1nc(CSc2ccc(Cl)cc2)nc(N2CCCCC2)n1 | 5.6 µg/mL (≈ 16.7 µM)
57 | O=S(=O)(Nc1ccc(-c2cnco2)cc1)c1ccccc1 | 43.6 µg/mL (≈ 145 µM)
58 | CCC1(C)NC(=O)N(CC(=O)Nc2cc(C)on2)C1=O (stereo not given) | > 42 µg/mL
59 | COc1ccc(C(=O)Cn2cnc3ccccc3c2=O)c(OC)c1 | 41.7 µg/mL (≈ 129 µM)
60 | Cn1c(CNC(=O)OC(C)(C)C)n[nH]c1=S | > 36.6 µg/mL
61 | N#Cc1ccc(-c2cn3c(n2)SCC3)cc1 | > 34.1 µg/mL
62 | O=C(NC1CCN(C(=O)NCc2ccccc2)CC1)c1cccc(F)c1 | 3.4 µg/mL (≈ 9.57 µM)
63 | Cc1cc(=O)[nH]c(SCC(=O)Nc2ccc3c(c2)OCCO3)n1 | > 50 µg/mL
64 | COC(=O)c1sccc1NC(=S)N(C)C1CCCCC1 | 0.4 µg/mL (≈ 1.28 µM)
65 | O=C(/C=C/c1ccc(Cl)cc1)OCC(=O)c1ccc[nH]1 | 2.2 µg/mL (≈ 7.59 µM)
66 | COC(=O)c1ccccc1NC(=O)c1sc(Cl)nc1C | 44 µg/mL (≈ 142 µM)
67 | COc1cccc(C(=O)Nc2cc(C)nn2-c2ccccc2)c1OC | > 50.6 µg/mL
68 | Cc1ccc(NC(=O)NC(=O)c2ccccc2)cc1F | < 0.3 µg/mL
69 | Cc1cc(NC(=O)COc2ccc(C)c(C)c2)no1 | 0.7 µg/mL (≈ 2.69 µM)
70 | Cc1nnc(N(C)C(=O)c2ccc3c(c2)OCO3)s1 | > 41.6 µg/mL
71 | CCN(CC(=O)NCc1cccs1)C(=O)c1ccc(-c2ccc(F)cc2)o1 | 51.8 µg/mL (≈ 134 µM)
72 | CCOc1cc(N2CCOCC2)c(OCC)cc1NC(=O)COC(=O)c1c(CC)noc1C | 7 µg/mL (≈ 15.2 µM)

Row | SMILES | solubility kinetic
73 | COc1ccc(O)c(C2=Nc3ccccc3N=C(c3ccccc3)C2)c1 | < 0.4 µg/mL
74 | O=C(CSc1cc(Cl)ccc1Cl)NCCCn1ccnc1 | 45.3 µg/mL (≈ 132 µM)
75 | Cc1ccc(NC(=O)COC(=O)C2CC2(Cl)Cl)cc1C (stereo not given) | 47.1 µg/mL (≈ 149 µM)
76 | Cc1sc2ncnc(SCC(=O)Nc3cccc(S(N)(=O)=O)c3)c2c1C | 5.3 µg/mL (≈ 13 µM)
77 | O=C(COC(=O)c1ccco1)NC1CCCc2ccccc21 (stereo not given) | > 44.9 µg/mL
78 | COc1cc([N+](=O)[O-])cc([N+](=O)[O-])c1NC(=O)N1CCOCC1 | > 48.9 µg/mL
79 | CNC(=O)CSc1nnc(-c2ccco2)n1-c1ccccc1 | > 47.2 µg/mL
80 | O=C(Nc1ccc(Cl)cc1)c1cc(-c2cccs2)on1 | < 0.3 µg/mL
81 | CC(C)N(C1=CC(=O)OC12CCCCC2)C(C)C | > 37.7 µg/mL
82 | CC1CCN(S(=O)(=O)c2ccc3c(c2)oc(=O)n3C)CC1 | 3 µg/mL (≈ 9.67 µM)
83 | CCCCN(C)CCNC(=O)C(NC(=O)C1CCC(C)CC1)C(C)C (stereo not given) | > 53 µg/mL
84 | Cc1cccc(C(=S)N2CCOCC2)n1 | > 33.3 µg/mL
85 | O=C(OCCN1C(=O)c2ccccc2C1=O)Oc1ccccc1 | 37.1 µg/mL (≈ 119 µM)
86 | O=C(c1cc(-c2cccc(O)c2)on1)N1CCCC1 | 32.6 µg/mL (≈ 126 µM)
87 | CCc1c(C(=O)NC(C)C2CCCO2)csc1C (stereo not given) | 35.9 µg/mL (≈ 134 µM)
88 | O=S(=O)(c1ccc(Cl)nc1)N1CCOCC1 | > 39.4 µg/mL
89 | Cc1cc(C)c(NC(=O)C2CC(=O)N(C(C)C)C2)c(C)c1 (stereo not given) | > 43.3 µg/mL
90 | c1ccc(-c2nc3c4ccccc4ccn3c2CN2CCCCC2)cc1 | 8.1 µg/mL (≈ 23.7 µM)
91 | CCOc1ccc2c(c1)[nH]c(=S)n2C | > 31.2 µg/mL
92 | COC(=O)c1cn(C(=O)c2cccc(C)c2)c2ccccc12 | 3.9 µg/mL (≈ 13.3 µM)
93 | Nc1cccc(-n2cccc2)c1 | 18.2 µg/mL (≈ 115 µM)
94 | Cc1ccc(S(=O)(=O)c2cc3ccccc3nc2N)cc1 | 0.5 µg/mL (≈ 1.68 µM)
95 | COC(=O)Cn1cc(C=C2C(=O)NC(=O)NC2=O)c2ccccc21 | 8.6 µg/mL (≈ 26.3 µM)
96 | CC(=O)C1=NOC2C(=O)N(c3ccc(Cl)cc3)C(=O)C12 (stereo not given) | > 43.9 µg/mL

Row | SMILES | solubility kinetic
97 | O=C(NC(=S)Nc1ccc2[nH]c(=O)[nH]c2c1)c1ccccc1F | 1.1 µg/mL (≈ 3.33 µM)
98 | CN(c1nc2ccccc2[nH]c1=O)C1CCCCC1 | 2.9 µg/mL (≈ 11.3 µM)
99 | CCOc1ncccc1-c1nc(-c2cccs2)no1 | 1.8 µg/mL (≈ 6.59 µM)
100 | CC(NC(=O)c1ccccc1Cl)C1CC2CCC1C2 (stereo not given) | 19.7 µg/mL (≈ 70.9 µM)
101 | CCN(Cc1ccccc1)C(=O)CC(=O)N(CC)Cc1ccccc1 | > 50.8 µg/mL
102 | O=C(COC(=O)c1c(F)cccc1F)NCc1cccs1 | > 46.7 µg/mL
103 | COc1cc(N2CCOCC2)ccc1C=C(C#N)C#N | 0.7 µg/mL (≈ 2.6 µM)
104 | CN(CCOc1ccccc1)CC(=O)Nc1cccc(C#N)c1 | 43 µg/mL (≈ 139 µM)
105 | C=C(C)CN(CC)Cc1c(C(=O)N(C)CCCC)nc2ccccn12 | > 51.4 µg/mL
106 | Cc1ccc(C(=O)NCCC(=O)N2CCCC2)cc1 | 39 µg/mL (≈ 150 µM)
107 | COc1ccc(NC(=S)NCCN2CCC(C)CC2)cc1 | > 46.1 µg/mL
108 | NC(=O)c1ccc2nc(-c3ccccc3)c(-c3ccccc3)nc2c1 | 0.6 µg/mL (≈ 1.84 µM)
109 | O=C(Nc1ccc2c(c1)OCCO2)c1ccc(Cl)cc1Cl | 3.5 µg/mL (≈ 10.8 µM)
110 | CC1=CC(=C(C#N)C#N)C=C(C)N1CCC(C)C | 1.7 µg/mL (≈ 7.04 µM)
111 | Cc1ccc(S(=O)(=O)c2ncccc2[N+](=O)[O-])cc1 | 40.9 µg/mL (≈ 147 µM)
112 | CCCN(CC(=O)Nc1cc(Cl)ccc1Cl)C(=O)/C=C/c1cc(OC)ccc1OC | 5.1 µg/mL (≈ 11.3 µM)
113 | FC(F)(F)c1ccccc1NC(=S)N1CCCC1 | 33 µg/mL (≈ 120 µM)
114 | Cc1ccccc1C(=O)NCC(C)NC(=O)c1ccccc1C (stereo not given) | 42.4 µg/mL (≈ 137 µM)
115 | Cc1cnc(NC(=O)CCc2ccccc2)s1 | 8.7 µg/mL (≈ 35.3 µM)
116 | Oc1c(C=Nc2cccc3nsnc23)ccc2ccccc12 | 19.3 µg/mL (≈ 63.2 µM)
117 | CCN(C(=O)N1CCOCC1)c1ccccc1 | 34.7 µg/mL (≈ 148 µM)
118 | O=C(Nc1ccc(F)c(Cl)c1)c1ccc2c(c1)OCO2 | < 0.6 µg/mL
119 | Cc1ccc(NC(=S)NCCSc2ccc(Cl)cc2)cc1 | < 0.4 µg/mL
120 | CCc1ccc(N(CC(=O)N2CCOCC2)S(C)(=O)=O)cc1 | > 49 µg/mL

— PubChem BioAssay AID1996
